{"source": "patent US20230391817A1", "about": "“5ALPHA-HYDROXY-6BETA-[2-(1-H-IMIDAZOL-4-YL)-ETHYLAMINO]-CHOLESTAN-3BETA-OL ANALOGUES AND PHARMACEUTICAL COMPOSITIONS COMPRISING SAME FOR USE IN THE TREATMENT OF CANCER” (priority 2020, published 2023)", "key": {"[1]": {"test_system": "Neuro2a (murine neuroblastoma) cells", "assay": "Cytotoxicity on Neuro2a cells, trypan blue test", "type": "cell-based", "settings": "48 h", "procedure": "For this experiment, a cell culture medium was prepared. The culture medium consisted of Dulbecco's Modified Eagle Medium (DMEM, sold by Westburg under the reference LO BE12-604F), comprising 4.5 g/L glucose with L-glutamine, to which 10% fetal calf serum (FCS) is added. Neuro2a (murine neuroblastoma) cells are introduced into this culture medium.\n24-well dishes were seeded with 10 000 Neuro2a cells per well. After 72 hours (h) of culture under normal conditions, i.e., in an incubator at 37° C. with 5% CO2, the Neuro2a cells were treated for 48 h with 3β-fluoro-5α-hydroxy-6β-[2-(1H-imidazol-4-yl)ethylamino]-cholestane and 5α-hydroxy-6β-[2-(1H-imidazol-4-yl)ethylamino]cholestan-3β-ol at 100 nM, 1 μM and 10 μM. A control (CTL) is also performed using the previously described protocol without treatment with […]-5α-hydroxy-6β-[2-(1H-imidazol-4-yl)ethylamino]-cholestane and 5α-hydroxy-6β-[2-(1H-imidazol-4-yl)ethylamino]cholestan-3β-ol. The cell survival was quantified by means of a trypan blue test with automatic counting using the Biorad TC20 machine (TC20™ Automated Cell Counter). The trypan blue test is based on the integrity of cell membranes, which is disrupted in the dead cells. Trypan blue stains dead cells blue. The Biorad TC20 cell counter counts the proportion of blue and non-blue cells, and reports the percentage of cells. The results are represented in FIG. 1."}, "[2]": {"target": "T1, Cholesterol Epoxide Hydrolase (ChEH) (Homo sapiens, UniProt Q15125+Q9UBM7)", "T1 construct": "endogenous in cells; host or cells: MCF-7", "T1 sequence (Q15125 whole entry)": "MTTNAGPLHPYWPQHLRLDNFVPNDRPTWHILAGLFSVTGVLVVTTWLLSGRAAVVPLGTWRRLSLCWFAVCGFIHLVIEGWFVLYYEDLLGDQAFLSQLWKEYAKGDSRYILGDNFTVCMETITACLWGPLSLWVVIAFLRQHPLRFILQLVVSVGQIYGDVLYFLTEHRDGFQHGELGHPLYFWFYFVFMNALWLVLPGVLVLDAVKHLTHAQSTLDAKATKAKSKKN", "T1 sequence (Q9UBM7 whole entry)": "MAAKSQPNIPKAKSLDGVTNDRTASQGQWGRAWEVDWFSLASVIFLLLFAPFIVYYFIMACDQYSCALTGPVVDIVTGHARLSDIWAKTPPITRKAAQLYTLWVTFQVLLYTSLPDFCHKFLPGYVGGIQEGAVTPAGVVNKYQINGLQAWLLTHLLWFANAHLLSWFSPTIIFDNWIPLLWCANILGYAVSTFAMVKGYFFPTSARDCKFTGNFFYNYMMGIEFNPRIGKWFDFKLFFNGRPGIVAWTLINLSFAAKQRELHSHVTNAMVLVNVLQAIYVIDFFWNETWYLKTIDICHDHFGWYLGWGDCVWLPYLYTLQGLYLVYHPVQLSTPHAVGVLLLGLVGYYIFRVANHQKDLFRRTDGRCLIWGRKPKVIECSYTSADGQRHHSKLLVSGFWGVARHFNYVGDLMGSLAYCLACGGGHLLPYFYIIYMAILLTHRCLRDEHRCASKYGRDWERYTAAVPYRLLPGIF", "assay": "Cholesterol Epoxide Hydrolase (ChEH) activity in MCF-7 cells, [14C]5,6α-EC metabolism by TLC", "type": "cell-based", "settings": "1 μM, 24 h, [14C]5,6α-EC 0.6 μM", "text": "The compounds 5,6α-epoxycholesterol (5,6α-EC) and 5,6p-epoxycholesterol (5,6p-EC) are oxysterols involved in the anticancer pharmacology of tamoxifen, a widely used antitumor drug. Both are metabolized to cholestane-3β,5α,6β-triol (CT) by the enzyme cholesterol-5,6-epoxide hydrolase (ChEH), and CT is metabolized by the enzyme HSD11B2 (11β-hydroxysteroid dehydrogenase 2) to 6-oxocholestane-3β,5α-diol (OCDO), a tumor-promoting oncosterone.\nMCF-7 cells are in a cell culture medium identical to that of Example 5 and are seeded in 6-well plates at 150 000 cells per well with three wells per treatment condition. […] Tamoxifen is used as a positive control for 3α-fluoro-5α-hydroxy-6β-[2-(1H-imidazol-4-yl)ethylamino]cholestane and 5α-hydroxy-6β-[2-(1H-imidazol-4-yl)ethylamino]cholestan-3β-ol (1 μM for all molecules).\nAfter 24 hours of treatment, the media are collected and lipid extracts are prepared from the cell pellets by extraction with 100 μL of chloroform, 400 μL of methanol, and 300 μL of water.\nThe lipid extracts are analyzed by thin layer chromatography (TLC) using ethyl acetate (EtOAc) as eluent. The analysis is performed with a plate reader and then by autoradiography."}}, "data": [{"molecule": "CC(C)CCC[C@@H](C)[C@H]1CC[C@H]2[C@@H]3C[C@@H](NCCc4c[nH]cn4)[C@@]4(O)C[C@@H](F)CC[C@]4(C)[C@H]3CC[C@]12C", "note": "[DX111, 3β-fluoro-5α-hydroxy-6β-[2-(1H-imidazol-4-yl)ethylamino]cholestane]", "values": [{"measurement": "percentage of cell survival relative to the control group", "setting": "[1]; 100 nM", "value": "unchanged"}, {"measurement": "percentage of cell survival relative to the control group", "setting": "[1]; 1 μM", "value": 75, "unit": "%"}, {"measurement": "percentage of cell survival relative to the control group", "setting": "[1]; 10 μM", "value": 30, "unit": "%"}, {"measurement": "inhibition of ChEH activity", "setting": "[2]", "value": "almost total inhibition"}]}]}
